Measured values as given in ChEMBL document CHEMBL3217670, “Structures and biofilm inhibition activities of brominated furanones for Escherichia coli and Pseudomonas aeruginosa” (Medchemcomm, 2013).
Calls of active or inactive are those of the source. The rule behind the calls is not given here.

Tests used:
[1] = target: T1, HTH-type quorum-sensing regulator RhlR (Pseudomonas aeruginosa (strain ATCC 15692 / PAO1 / 1C / PRS 101 / LMG12228)) (UniProt P54292); assay: Agonist activity at Pseudomonas aeruginosa PAO1 RhlR expressing rhlI coexpressing LVA-GFP at 100 to 200 uM after 24 hrs by fluorescence assay
T1 sequence (whole entry): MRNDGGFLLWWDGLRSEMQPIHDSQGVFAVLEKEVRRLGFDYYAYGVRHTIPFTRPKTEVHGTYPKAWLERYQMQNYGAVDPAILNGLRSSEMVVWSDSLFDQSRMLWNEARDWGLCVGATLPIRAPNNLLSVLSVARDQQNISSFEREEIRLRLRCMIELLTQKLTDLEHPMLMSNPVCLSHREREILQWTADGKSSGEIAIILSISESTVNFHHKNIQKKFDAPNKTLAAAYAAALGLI

[2] = target: T2, Transcriptional activator protein LasR (Pseudomonas aeruginosa (strain ATCC 15692 / PAO1 / 1C / PRS 101 / LMG12228)) (UniProt P25084); assay: Antagonist activity at Pseudomonas aeruginosa PAO1 LasR expressing lasI coexpressing LVA-GFP at 100 to 200 uM after 24 hrs by fluorescence assay
T2 sequence (whole entry): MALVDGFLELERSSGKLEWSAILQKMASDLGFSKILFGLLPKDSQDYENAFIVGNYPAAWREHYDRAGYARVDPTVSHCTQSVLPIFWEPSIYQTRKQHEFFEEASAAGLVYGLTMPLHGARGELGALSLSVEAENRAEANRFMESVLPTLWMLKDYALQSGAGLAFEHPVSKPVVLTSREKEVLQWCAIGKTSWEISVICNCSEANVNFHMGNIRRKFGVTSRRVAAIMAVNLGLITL

[3] = system: Pseudomonas aeruginosa PAO1; assay: Inhibition of quorum sensing system-mediated elastase B production in Pseudomonas aeruginosa PAO1 at 200 uM after 24 hrs by colorimetric assay relative to control
Pseudomonas aeruginosa [4] = assay: Inhibition of biofilm formation in wild-type Pseudomonas aeruginosa PAO1 expressing red fluorescent protein assessed as effect on thickness of biofilm at 200 uM after 24 hrs by confocal laser scanning microscopic analysis; assay type: functional, organism-based
Pseudomonas aeruginosa [5] = assay: Inhibition of biofilm formation in wild-type Pseudomonas aeruginosa PAO1 expressing red fluorescent protein assessed as effect on surface area of biofilm at 200 uM after 24 hrs by confocal laser scanning microscopic analysis; assay type: functional, organism-based
Pseudomonas aeruginosa [6] = assay: Inhibition of biofilm formation in wild-type Pseudomonas aeruginosa PAO1 expressing red fluorescent protein assessed as reduction in biomass at 200 uM after 24 hrs by confocal laser scanning microscopic analysis relative to control; assay type: functional
Pseudomonas aeruginosa [7] = assay: Inhibition of biofilm formation in wild-type Pseudomonas aeruginosa PAO1 at 200 uM after 24 hrs by crystal violet staining-based assay relative to control; assay type: functional
Escherichia coli [8] = assay: Inhibition of biofilm formation in sdiA-knockout Escherichia coli AY1297 at 300 uM after 24 hrs by crystal violet staining-based assay relative to control; assay type: functional; conditions: AY1297, 24 h
Escherichia coli [9] = assay: Inhibition of biofilm formation in wild-type Escherichia coli RP437 at 300 uM after 24 hrs by crystal violet staining-based assay relative to control; assay type: functional; conditions: RP437, 24 h
Escherichia coli [10] = assay: Inhibition of biofilm formation in sdiA-knockout Escherichia coli AY1297 at 200 uM after 24 hrs by crystal violet staining-based assay relative to control; assay type: functional
Escherichia coli [11] = assay: Inhibition of biofilm formation in wild-type Escherichia coli RP437 at 200 uM after 24 hrs by crystal violet staining-based assay relative to control; assay type: functional
Pseudomonas aeruginosa [12] = assay: Antimicrobial activity against wild-type Pseudomonas aeruginosa PAO1 assessed as inhibition of planktonic growth at 300 uM measured for 2 to 24 hrs; assay type: organism-based; conditions: in vivo
Escherichia coli [13] = assay: Antimicrobial activity against sdiA-knockout Escherichia coli AY1297 assessed as inhibition of planktonic growth at 300 uM measured for 2 to 24 hrs; assay type: organism-based; conditions: in vivo
Escherichia coli [14] = assay: Antimicrobial activity against wild-type Escherichia coli RP437 assessed as inhibition of planktonic growth at 300 uM measured for 2 to 24 hrs; assay type: organism-based; conditions: in vivo
Escherichia coli [15] = assay: Ratio of inhibition of biofilm formation in sdiA-knockout Escherichia coli AY1297 to inhibition of biofilm formation in wild-type Escherichia coli RP437; assay type: functional
Escherichia coli [16] = assay: Inhibition of biofilm formation in sdiA-knockout Escherichia coli AY1297 at 200 uM after 24 hrs by scanning electron microscopic analysis; assay type: functional, organism-based
Escherichia coli [17] = assay: Inhibition of biofilm formation in wild-type Escherichia coli RP437 at 200 uM after 24 hrs by scanning electron microscopic analysis; assay type: functional, organism-based
Escherichia coli [18] = assay: Inhibition of biofilm formation in sdiA-knockout Escherichia coli AY1297 expressing red fluorescent protein assessed as reduction in biomass at 200 uM after 24 hrs by confocal laser scanning microscopic analysis relative to control; assay type: functional; conditions: AY1297, 24 h
Escherichia coli [19] = assay: Inhibition of biofilm formation in wild-type Escherichia coli RP437 expressing red fluorescent protein assessed as reduction in biomass at 200 uM after 24 hrs by confocal laser scanning microscopic analysis relative to control; assay type: functional; conditions: RP437, 24 h
Escherichia coli [20] = assay: Inhibition of biofilm formation in sdiA-knockout Escherichia coli AY1297 expressing red fluorescent protein assessed as effect on surface area of biofilm at 200 uM after 24 hrs by confocal laser scanning microscopic analysis; assay type: functional, organism-based
Escherichia coli [21] = assay: Inhibition of biofilm formation in wild-type Escherichia coli RP437 expressing red fluorescent protein assessed as effect on surface area of biofilm at 200 uM after 24 hrs by confocal laser scanning microscopic analysis; assay type: functional, organism-based
Escherichia coli [22] = assay: Inhibition of biofilm formation in sdiA-knockout Escherichia coli AY1297 expressing red fluorescent protein assessed as thickness of biofilm at 200 uM after 24 hrs by confocal laser scanning microscopic analysis (reference value: 157 micrometer); assay type: functional
Escherichia coli [23] = assay: Inhibition of biofilm formation in wild-type Escherichia coli RP437 expressing red fluorescent protein assessed as thickness of biofilm at 200 uM after 24 hrs by confocal laser scanning microscopic analysis (reference value: 253 micrometer); assay type: functional
Pseudomonas aeruginosa [24] = assay: Antimicrobial activity against wild-type Pseudomonas aeruginosa PAO1 assessed as inhibition of planktonic growth at 200 uM measured for 2 to 24 hrs; assay type: organism-based; conditions: in vivo
Escherichia coli [25] = assay: Antimicrobial activity against sdiA-knockout Escherichia coli AY1297 assessed as inhibition of planktonic growth at 200 uM measured for 2 to 24 hrs; assay type: organism-based; conditions: in vivo
Escherichia coli [26] = assay: Antimicrobial activity against wild-type Escherichia coli RP437 assessed as inhibition of planktonic growth at 200 uM measured for 2 to 24 hrs; assay type: organism-based; conditions: in vivo
Pseudomonas aeruginosa [27] = assay: Inhibition of biofilm formation in wild-type Pseudomonas aeruginosa PAO1 at 100 uM; assay type: functional, organism-based
Escherichia coli [28] = assay: Inhibition of biofilm formation in wild-type Escherichia coli RP437 at 100 uM; assay type: functional, organism-based
Pseudomonas aeruginosa [29] = assay: Antimicrobial activity against wild-type Pseudomonas aeruginosa PAO1 assessed as inhibition of planktonic growth at 1 to 100 uM measured for 2 to 24 hrs; assay type: organism-based; conditions: in vivo
Escherichia coli [30] = assay: Antimicrobial activity against wild-type Escherichia coli RP437 assessed as inhibition of planktonic growth at 1 to 100 uM measured for 2 to 24 hrs; assay type: organism-based; conditions: in vivo
Pseudomonas aeruginosa [31] = assay: Inhibition of biofilm formation in wild-type Pseudomonas aeruginosa PAO1 at 50 uM; assay type: functional, organism-based
Pseudomonas aeruginosa [32] = assay: Antimicrobial activity against wild-type Pseudomonas aeruginosa PAO1 assessed as inhibition of planktonic growth at 100 uM measured for 2 to 24 hrs; assay type: organism-based; conditions: in vivo

## C/C(Br)=C1\C=CC(=O)O1
[1]
  Activity: Active
[2]
  inhibition: Active
[3]
  inhibition: 41%
Pseudomonas aeruginosa [4]
  inhibition: inactive
Pseudomonas aeruginosa [5]
  inhibition: inactive
Pseudomonas aeruginosa [6]
  inhibition: inactive
Pseudomonas aeruginosa [7]
  inhibition: inactive
Escherichia coli [8]
  inhibition at 300 µM: 26%
Escherichia coli [9]
  inhibition at 300 µM: 34%
Escherichia coli [10]
  inhibition: inactive
Escherichia coli [11]
  inhibition: inactive
Pseudomonas aeruginosa [12]
  growth inhibition (GI): Non-toxic
Escherichia coli [13]
  growth inhibition (GI): Non-toxic
Escherichia coli [14]
  growth inhibition (GI): Non-toxic
Escherichia coli [15]
  Ratio: 2

## CC1=C(Br)/C(=C\Br)OC1=O
[1]
  Activity: Active
[2]
  inhibition: Active
[3]
  inhibition: 43%
Pseudomonas aeruginosa [6]; PAO1, 24 h
  inhibition at 200 µM: 41%
Pseudomonas aeruginosa [7]; PAO1, 24 h
  inhibition at 200 µM: 43%
Escherichia coli [16]
  inhibition: inactive
Escherichia coli [17]
  inhibition: Active
Escherichia coli [18]
  inhibition at 200 µM: 36%
Escherichia coli [19]
  inhibition at 200 µM: 53%
Escherichia coli [20]
  inhibition: Active
Escherichia coli [21]
  inhibition: Active
Escherichia coli [22]
  Activity: 137 um
Escherichia coli [23]
  Activity: 126 um
Escherichia coli [10]; AY1297, 24 h
  inhibition at 200 µM: 18%
Escherichia coli [11]; RP437, 24 h
  inhibition at 200 µM: 50%
Pseudomonas aeruginosa [24]
  growth inhibition (GI): Non-toxic
Escherichia coli [25]
  growth inhibition (GI): Non-toxic
Escherichia coli [26]
  growth inhibition (GI): Non-toxic
Escherichia coli [15]
  Ratio: 2

## O=C1C=C(Br)/C(=C/Br)O1
Pseudomonas aeruginosa [27]
  inhibition: inactive
Escherichia coli [28]
  inhibition: inactive
Pseudomonas aeruginosa [29]
  Activity: Non-toxic
Escherichia coli [30]
  Activity: Non-toxic
Pseudomonas aeruginosa [24]
  growth inhibition (GI): Non-toxic
Escherichia coli [25]
  growth inhibition (GI): Toxic
Escherichia coli [26]
  growth inhibition (GI): Toxic

## O=C1C=C/C(=C/Br)O1
Pseudomonas aeruginosa [31]
  inhibition: inactive
Escherichia coli [28]
  inhibition: inactive
Pseudomonas aeruginosa [32]
  Activity: Toxic
Escherichia coli [30]
  Activity: Non-toxic
Pseudomonas aeruginosa [24]
  growth inhibition (GI): Toxic
Escherichia coli [25]
  growth inhibition (GI): Non-toxic
Escherichia coli [26]
  growth inhibition (GI): Toxic
